Data: patent publication US4551547A, “Biocidal 2-aryl-1, 3-cyclopentanedione enol ester compounds” (Union Carbide Corporation, priority 1983, dated 1985)

Columns and labels:
[1] = test system: egg of the two-spotted mite; assay: Mite Ovicide Test (eggs); format: in vivo, Tetranychus urticae (Koch); parameters: key to Miticidal, Egg: A: Excellent Control; B: Partial Control; No Control; conditions: Table II; unhatched eggs after four days
Procedure: Suspensions of the test compounds were prepared by dissolving one gram of compound in 50 milliliters of acetone in which had been dissolved 0.1 gram (10 percent of the weight of compound) of an alkylphenoxyethanol sufactant, as an emulsifying or dispersing agent. The resulting solution was mixed into 160 milliliters of water to give roughly 200 milliliters of a suspension containing the compound in finely divided form. The thus prepared stock suspension contained 0.5 percent by weight of compound. The test concentrations employed in the tests described below were obtained by diluting the stock suspension with water. The test procedures were as follows: The test organism was the egg of the two-spotted mite (Tetranychus urticae (Koch)), as obtained from adults reared on […] bean plants under controlled conditions of 80±5° F. and 50±5 percent relative humidity. Heavily infested leaves from a stock culture were placed on the primary leaves of two bean plants six to eight inches in height growing in a two-and-a-half inch clay pot. Females were allowed to oviposit for a period of 48 hours and the leaves of the infested plants were dipped in a solution containing 800 parts of tetraethyl pyrophosphate per million parts of water in order to destroy the reproductory forms and thus prevent further egg laying. […] The plants were allowed to dry thoroughly. The test compounds were formulated by diluting the stock suspension with water to give a suspension containing varying amounts of test compound per million parts of final formulation. The potted plants (one pot per compound) were placed on a revolving turntable and sprayed with 100-110 milliliters of test compound formulation by use of a DeVilbis spray gun set at 40 spig. air pressure. This application which lasted 30 seconds, was sufficient to wet the plants to run-off. As a control, 100-110 milliliters of a water solution containing acetone and emulsifier in the same concentrations as the test compound formulation, but containing no test compound, were also sprayed on plants infested with eggs. The sprayed plants were held at 80±5° F. and 50±5 percent relative humidity for four days, after which a microscopic examination was made of unhatched (dead) and hatched (living) eggs. In these tests the pesticidal activity of the compounds against mites and mite eggs was rated as follows: Tests were conducted in accordance with the procedures given at pages 17 to 21 supra. The results are expressed in the same manner as used in Table II, except with respect to miticidal activity. For mite adult and mite egg comparison purposes, results are given in parts per million (ppm) required for a 50 percent kill of mites or eggs, respectively.

[2] = test system: Red root pigweed (Amaranthus); assay: Preliminary herbicide seed germination test (pre-emergent), red root pigweed; format: in vivo, Amaranthus retroflexus; parameters: key: 5: no seedling emerged; 4: few seedlings emerged and/or very severe stunting; 3: moderate reduction in stand and/or moderate stunting.; 2: very slight reduction in stand and/or slight stunting; 1: no injury, seedlings appear no different with respect to stand or growth than untreated controls; conditions: Table II; ten to twelve days after application
Procedure: (§1) Suspensions of the test compounds were prepared by dissolving one gram of compound in 50 milliliters of acetone in which had been dissolved 0.1 gram (10 percent of the weight of compound) of an alkylphenoxyethanol sufactant, as an emulsifying or dispersing agent. The resulting solution was mixed into 160 milliliters of water to give roughly 200 milliliters of a suspension containing the compound in finely divided form. The thus prepared stock suspension contained 0.5 percent by weight of compound. The test concentrations employed in the tests described below were obtained by diluting the stock suspension with water. The test procedures were as follows:
The following seeds were used in this test:
Red root pigweed--Amaranthus retroflexus
Two […] mixtures were prepared as follows:
Each of the above mixtures was rolled separately in 5 gallon containers for approximately one-half hour on ball mill to insure uniform mixing of seeds and soil. For each compound four 3-inch pots were filled with soil to within 11/2 inches of top of pots. To two of these pots were added 70 cc. of Mixture I. To the remaining 2 pots were added 70 cc. of Mixture II. The seed-soil mixture was tamped firmly, and the pots were removed to the greenhouse and watered lightly. About 2 hours after planting, 25 milliliters of the test formulation were added to one pot containing Mixture I and one pot containing Mixture II. An equal volume of a water solution containing acetone and an emulsifier in the same concentration as the herbicidal mixture but without the candidate herbicide was also added to each of the soil-seed mixtures. These pots are used as check or control units. The test compounds were formulated by diluting the stock suspension with water to obtain the desired concentration of the compound in parts per million of the final formulation. Each compound was tested at the same concentration. […] Ratings were made according to the following designations: […]

[3] = test system: Bean; assay: Post-emergent herbicidal test, bean; format: in vivo; parameters: key: 1: no perceptible injury; 2: intermediate degrees of injury; 3: intermediate degrees of injury; 4: intermediate degrees of injury; 5: the plant was dead; conditions: Table II; 2500 parts per million, after ten days
Procedure: as §1
Experiments were also conducted to determine the phytotoxicity of representative compositions with respect to healthy fresh plants. Solutions of the compounds were prepared as described above to provide a concentration of 2500 parts per million of the test compound. The test plants were sprayed in accordance with the procedure described above for the Mite Foliage Spray Test so as to deliver approximately 100 milliliters of test solutions to the leaves of each plant tested. The sprayed plants and controls were set aside for approximately one hour to allow the solutions to dry and were then placed in the greenhouse. After ten days the plants were visually inspected to determine the extent of foliage injury. A rating of 1 indicates no perceptible injury; 5 indicates the plant was dead and ratings of 2, 3 and 4 indicate intermediate degrees of injury based upon the number and extent to which leaves were injured.

## Cc1ccccc1C1=C(OC(=O)C(C)C)C2CCCCC2C1=O (stereo not drawn) [Compound 20]
[1]
  Miticidal, Egg: A
[2]
  Pre-emergent Herbicidal, Amaranthus: 3
[3]
  Post-emergent Herbicidal, Bean: 3

## CC(C)C(=O)OC1=C(c2ccc(Cl)cc2Cl)C(=O)CC1 [Compound 4]
[1]
  Miticidal, Egg: B
[2]
  Pre-emergent Herbicidal, Amaranthus: 1
[3]
  Post-emergent Herbicidal, Bean: 2

## Cc1ccc(C)c(C2=C(OC(=O)C(C)C)C3CCCCC3C2=O)c1 (stereo not drawn) [Compound 29]
[1]
  Miticidal, Egg: A
[2]
  Pre-emergent Herbicidal, Amaranthus: 1
[3]
  Post-emergent Herbicidal, Bean: 1

## Cc1ccc(C2=C(OC(=O)c3ccccc3)CCC2=O)c(C)c1 [Compound 10]
[1]
  Miticidal, Egg: B
[2]
  Pre-emergent Herbicidal, Amaranthus: 1
[3]
  Post-emergent Herbicidal, Bean: 3

## CCCCCCCCCC(=O)OC1=C(c2cc(C)ccc2C)C(=O)C2CCCCC12 (stereo not drawn) [Compound 32]
[1]
  Miticidal, Egg: A
[2]
  Pre-emergent Herbicidal, Amaranthus: 1
[3]
  Post-emergent Herbicidal, Bean: 1
